SMILES strings stand for the structures. Read-outs that look alike come from different tables or passages of the source. *1 amine or outer side, *2 acyl side, *3 side chain or, on linkers, in order; H or OH if unused. Where a SMILES comes first, the peptide text is derived from it. Side-chain parts run from the residue outwards. [ ]: non-standard residue; d: D form. The star is where a group is joined. C20 diacid = O=C(O)CCCCCCCCCCCCCCCCCCC(=O)*; γGlu = O=C(O)[C@H](CCC(=O)[*:2])N[*:1]; 2Thenoyl(5-Cl) = O=C(c1ccc(Cl)s1)*; X27 = O=C1CC(C(=O)*)(c2ccccc2)CN1; X40 = CC(C)(C(=O)*)n1cc(Cl)cn1; X24 = O=C(C1(c2cccnc2)CCC1)*; Ac4c = NC1(C(=O)O)CCC1; X10 = Clc1cccc(N*)c1Cl; AEEA = NCCOCCOCC(=O)O; Aib = CC(C)(N)C(=O)O; CO = O=C([*:1])[*:2]; GABA = NCCCC(=O)O

The source of these data is patent US12281149B2, “Modulators of G-protein coupled receptors” (priority 2021, dated 2025).

The target in one assay is GLP-1 receptor (Homo sapiens, UniProt P43220). As to the kind of experiment: HitHunter cAMP assay, GLP-1 receptor. Type of assay: cell-based. The note with it: read-out: Emax GLP-1R.
GLP-1 receptor, sequence (P43220 24-463): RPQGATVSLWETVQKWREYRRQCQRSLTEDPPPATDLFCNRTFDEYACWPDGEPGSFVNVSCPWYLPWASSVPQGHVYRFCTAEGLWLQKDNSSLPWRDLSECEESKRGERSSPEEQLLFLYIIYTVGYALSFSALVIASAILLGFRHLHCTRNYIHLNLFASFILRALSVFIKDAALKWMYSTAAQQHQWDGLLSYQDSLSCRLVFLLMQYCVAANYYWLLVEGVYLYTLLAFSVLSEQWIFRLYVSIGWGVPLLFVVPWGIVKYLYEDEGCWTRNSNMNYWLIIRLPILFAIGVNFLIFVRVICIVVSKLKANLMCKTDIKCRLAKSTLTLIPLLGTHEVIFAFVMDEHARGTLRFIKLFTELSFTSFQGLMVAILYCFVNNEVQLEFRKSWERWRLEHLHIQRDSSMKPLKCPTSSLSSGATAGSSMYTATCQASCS
A further assay has as its target T1, GIP receptor (Homo sapiens, UniProt P48546).
T1 sequence (P48546 22-466): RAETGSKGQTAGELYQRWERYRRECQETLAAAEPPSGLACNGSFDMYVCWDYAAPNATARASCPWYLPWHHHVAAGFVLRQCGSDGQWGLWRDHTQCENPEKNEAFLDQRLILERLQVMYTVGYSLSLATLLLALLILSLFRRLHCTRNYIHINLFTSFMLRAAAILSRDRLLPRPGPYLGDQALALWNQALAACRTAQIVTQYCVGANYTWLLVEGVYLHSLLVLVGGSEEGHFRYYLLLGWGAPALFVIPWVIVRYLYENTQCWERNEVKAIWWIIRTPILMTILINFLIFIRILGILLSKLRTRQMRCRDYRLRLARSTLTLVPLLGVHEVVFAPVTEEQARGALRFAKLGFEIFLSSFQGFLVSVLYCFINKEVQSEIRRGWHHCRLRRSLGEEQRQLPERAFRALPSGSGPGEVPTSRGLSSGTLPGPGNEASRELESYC
As to the kind of experiment: HitHunter cAMP assay, GIP receptor. Format: cell-based. The note with it: read-out: Emax GIP-1R.

The mark [1] stands for this setting: CHO cells, cAMP, normalized to maximum signal from GLP-1 (high) and DMSO (low).
[2] abbreviates: CHO cells, cAMP, normalized to maximum signal from GIP (high) and DMSO (low).

On to `CC[C@H](C)[C@H](NC(=O)[C@H](CC(C)C)NC(=O)[C@H](Cc1c[nH]c2ccccc12)NC(=O)[C@H](CCC(N)=O)NC(=O)[C@@H](NC(=O)[C@H](Cc1ccccc1)NC(=O)[C@H](C)NC(=O)[C@H](CCCCNC(=O)COCCOCCNC(=O)COCCOCCNC(=O)CC[C@H](NC(=O)CCCCCCCCCCCCCCCCCCC(=O)O)C(=O)O)NC(=O)[C@H](CCC(N)=O)NC(=O)[C@H](C)NC(=O)[C@@H](NC(=O)[C@H](CCCCN)NC(=O)[C@H](CC(=O)O)NC(=O)[C@H](CC(C)C)NC(=O)C(C)(C)NC(=O)[C@@H](NC(=O)[C@H](CO)NC(=O)[C@H](Cc1ccc(O)cc1)NC(=O)[C@H](CC(=O)O)NC(=O)[C@H](CO)NC(=O)[C@@H](NC(=O)[C@H](Cc1ccccc1)NC(=O)[C@@H](NC(=O)CNC(=O)[C@H](CCC(=O)O)NC(=O)CCCNC(=O)C1(c2cccnc2)CCC1)[C@@H](C)O)[C@@H](C)O)[C@@H](C)CC)[C@@H](C)CC)C(C)C)C(=O)N[C@@H](C)C(=O)NCC(=O)NCC(=O)N1CCC[C@H]1C(=O)N[C@@H](CO)C(=O)N[C@@H](CO)C(=O)NCC(=O)N[C@@H](C)C(=O)N1CCC[C@H]1C(=O)N1CCC[C@H]1C(=O)N1CCC[C@H]1C(=O)N[C@@H](CO)C(N)=O` [Compound 251] ({X24-GABA}-EGTFTSDYSI[Aib]LDKIAQK([AEEA-AEEA-γGlu-C20 diacid])AFVQWLIAGGPSSGAPPPS-NH2; C-terminus assumed), for which the Emax at GLP-1 receptor (setting [1]) was found to be 91%; on GIP receptor (setting [2]), 92%.
On to `CC[C@H](C)[C@H](NC(=O)[C@H](CC(C)C)NC(=O)[C@H](Cc1c[nH]c2ccccc12)NC(=O)[C@H](CCC(N)=O)NC(=O)[C@@H](NC(=O)[C@H](Cc1ccccc1)NC(=O)[C@H](C)NC(=O)[C@H](CCCCNC(=O)COCCOCCNC(=O)COCCOCCNC(=O)CC[C@H](NC(=O)CCCCCCCCCCCCCCCCCCC(=O)O)C(=O)O)NC(=O)[C@H](CCC(N)=O)NC(=O)[C@H](C)NC(=O)[C@@H](NC(=O)[C@H](CCCCN)NC(=O)[C@H](CC(=O)O)NC(=O)[C@H](CC(C)C)NC(=O)C(C)(C)NC(=O)[C@@H](NC(=O)[C@H](CO)NC(=O)[C@H](Cc1ccc(O)cc1)NC(=O)[C@H](CC(=O)O)NC(=O)[C@H](CO)NC(=O)[C@@H](NC(=O)[C@H](Cc1ccccc1)NC(=O)[C@@H](NC(=O)CNC(=O)[C@H](CCC(=O)O)NC(=O)CCCNC(=O)C1(NC(=O)c2ccc(Cl)s2)CCC1)[C@@H](C)O)[C@@H](C)O)[C@@H](C)CC)[C@@H](C)CC)C(C)C)C(=O)N[C@@H](C)C(=O)NCC(=O)NCC(=O)N1CCC[C@H]1C(=O)N[C@@H](CO)C(=O)N[C@@H](CO)C(=O)NCC(=O)N[C@@H](C)C(=O)N1CCC[C@H]1C(=O)N1CCC[C@H]1C(=O)N1CCC[C@H]1C(=O)N[C@@H](CO)C(N)=O` [Compound 244] ({2Thenoyl(5-Cl)}-[Ac4c][GABA]EGTFTSDYSI[Aib]LDKIAQK([AEEA-AEEA-γGlu-C20 diacid])AFVQWLIAGGPSSGAPPPS-NH2; C-terminus assumed), for which the maximum response (Emax) was found to be 109% on GLP-1 receptor (setting [1]) and 120% on GIP receptor (setting [2]).
Turning to `CC[C@H](C)[C@H](NC(=O)[C@H](CC(C)C)NC(=O)[C@H](Cc1c[nH]c2ccccc12)NC(=O)[C@H](CCC(N)=O)NC(=O)[C@@H](NC(=O)[C@H](Cc1ccccc1)NC(=O)[C@H](C)NC(=O)[C@H](CCCCNC(=O)COCCOCCNC(=O)COCCOCCNC(=O)CC[C@H](NC(=O)CCCCCCCCCCCCCCCCCCC(=O)O)C(=O)O)NC(=O)[C@H](CCC(N)=O)NC(=O)[C@H](C)NC(=O)[C@@H](NC(=O)[C@H](CCCCN)NC(=O)[C@H](CC(=O)O)NC(=O)[C@H](CC(C)C)NC(=O)C(C)(C)NC(=O)[C@@H](NC(=O)[C@H](CO)NC(=O)[C@H](Cc1ccc(O)cc1)NC(=O)[C@H](CC(=O)O)NC(=O)[C@H](CO)NC(=O)[C@@H](NC(=O)[C@H](Cc1ccccc1)NC(=O)[C@@H](NC(=O)CNC(=O)[C@H](CCC(=O)O)NC(=O)CCCNC(=O)C1(c2ccccc2)CNC(=O)C1)[C@@H](C)O)[C@@H](C)O)[C@@H](C)CC)[C@@H](C)CC)C(C)C)C(=O)N[C@@H](C)C(=O)NCC(=O)NCC(=O)N1CCC[C@H]1C(=O)N[C@@H](CO)C(=O)N[C@@H](CO)C(=O)NCC(=O)N[C@@H](C)C(=O)N1CCC[C@H]1C(=O)N1CCC[C@H]1C(=O)N1CCC[C@H]1C(=O)N[C@@H](CO)C(N)=O` (stereo partly shown) [Compound 249] ({X27-GABA}-EGTFTSDYSI[Aib]LDKIAQK([AEEA-AEEA-γGlu-C20 diacid])AFVQWLIAGGPSSGAPPPS-NH2; C-terminus assumed), the results for the maximum response (Emax) at GLP-1 receptor (setting [1]) and on GIP receptor (setting [2]) were 97% and 104%, respectively.
Regarding `CC[C@H](C)[C@H](NC(=O)[C@H](CC(C)C)NC(=O)[C@H](Cc1c[nH]c2ccccc12)NC(=O)[C@H](CCC(N)=O)NC(=O)[C@@H](NC(=O)[C@H](Cc1ccccc1)NC(=O)[C@H](C)NC(=O)[C@H](CCCCNC(=O)COCCOCCNC(=O)COCCOCCNC(=O)CC[C@H](NC(=O)CCCCCCCCCCCCCCCCCCC(=O)O)C(=O)O)NC(=O)[C@H](CCC(N)=O)NC(=O)[C@H](C)NC(=O)[C@@H](NC(=O)[C@H](CCCCN)NC(=O)[C@H](CC(=O)O)NC(=O)[C@H](CC(C)C)NC(=O)C(C)(C)NC(=O)[C@@H](NC(=O)[C@H](CO)NC(=O)[C@H](Cc1ccc(O)cc1)NC(=O)[C@H](CC(=O)O)NC(=O)[C@H](CO)NC(=O)[C@@H](NC(=O)[C@H](Cc1ccccc1)NC(=O)[C@@H](NC(=O)CNC(=O)[C@H](CCC(=O)O)NC(=O)CCCNC(=O)CNC(=O)Nc1cccc(Cl)c1Cl)[C@@H](C)O)[C@@H](C)O)[C@@H](C)CC)[C@@H](C)CC)C(C)C)C(=O)N[C@@H](C)C(=O)NCC(=O)NCC(=O)N1CCC[C@H]1C(=O)N[C@@H](CO)C(=O)N[C@@H](CO)C(=O)NCC(=O)N[C@@H](C)C(=O)N1CCC[C@H]1C(=O)N1CCC[C@H]1C(=O)N1CCC[C@H]1C(=O)N[C@@H](CO)C(N)=O` [Compound 262] ({X10-CO}-G[GABA]EGTFTSDYSI[Aib]LDKIAQK([AEEA-AEEA-γGlu-C20 diacid])AFVQWLIAGGPSSGAPPPS-NH2; C-terminus assumed), the results for the maximal effect (Emax) on GLP-1 receptor (CHO) and at GIP receptor (CHO) were 90% and 106%, respectively.
On to `CC[C@H](C)[C@H](NC(=O)[C@H](CC(C)C)NC(=O)[C@H](Cc1c[nH]c2ccccc12)NC(=O)[C@H](CCC(N)=O)NC(=O)[C@@H](NC(=O)[C@H](Cc1ccccc1)NC(=O)[C@H](C)NC(=O)[C@H](CCCCNC(=O)COCCOCCNC(=O)COCCOCCNC(=O)CC[C@H](NC(=O)CCCCCCCCCCCCCCCCCCC(=O)O)C(=O)O)NC(=O)[C@H](CCC(N)=O)NC(=O)[C@H](C)NC(=O)[C@@H](NC(=O)[C@H](CCCCN)NC(=O)[C@H](CC(=O)O)NC(=O)[C@H](CC(C)C)NC(=O)C(C)(C)NC(=O)[C@@H](NC(=O)[C@H](CO)NC(=O)[C@H](Cc1ccc(O)cc1)NC(=O)[C@H](CC(=O)O)NC(=O)[C@H](CO)NC(=O)[C@@H](NC(=O)[C@H](Cc1ccccc1)NC(=O)[C@@H](NC(=O)CNC(=O)[C@H](CCC(=O)O)NC(=O)CCCNC(=O)C(C)(C)n1cc(Cl)cn1)[C@@H](C)O)[C@@H](C)O)[C@@H](C)CC)[C@@H](C)CC)C(C)C)C(=O)N[C@@H](C)C(=O)NCC(=O)NCC(=O)N1CCC[C@H]1C(=O)N[C@@H](CO)C(=O)N[C@@H](CO)C(=O)NCC(=O)N[C@@H](C)C(=O)N1CCC[C@H]1C(=O)N1CCC[C@H]1C(=O)N1CCC[C@H]1C(=O)N[C@@H](CO)C(N)=O` [Compound 248] ({X40-GABA}-EGTFTSDYSI[Aib]LDKIAQK([AEEA-AEEA-γGlu-C20 diacid])AFVQWLIAGGPSSGAPPPS-NH2; C-terminus assumed), for which the Emax on GLP-1 receptor (setting [1]) is 90%; at GIP receptor (setting [2]) it was 104%.

As a reminder, the Emax is the maximal effect, on the per cent scale that the assay sets.
